According to ChEMBL document CHEMBL1158583, “3-(2-Aminocarbonylphenyl)propanoic acid analogs as potent and selective EP3 receptor antagonists. Part 3: Synthesis, metabolic stability, and biological evaluation of optically active analogs” (Bioorg Med Chem, 2010):

What was measured:
[1] = (§1) AUC in rat at 10 mg/kg, po; format: ADME, organism-based, Plasma; set-up: dose 10 mg/kg, route oral; conditions: plasma
[2] = (§2) AUC in rat at […], iv; format: ADME, organism-based; set-up: dose 2.7 mg/kg, route intravenous; conditions: plasma
[3] = (§3) Volume of distribution at steady state in rat at […], iv; format: ADME, organism-based; set-up: dose 2.7 mg/kg, route intravenous; conditions: in vivo, read-out: Vdss
[4] = as §3; format: ADME, organism-based; set-up: dose 1.2 mg/kg, route intravenous; conditions: in vivo, read-out: Vdss
[5] = as §2; format: ADME, organism-based; set-up: dose 1.2 mg/kg, route intravenous; conditions: plasma
[6] = (§4) Oral bioavailability in rat at 10 mg/kg; format: ADME, organism-based; conditions: in vivo
[7] = Cmax in rat at 10 mg/kg, po; format: ADME, organism-based; set-up: dose 10 mg/kg, route oral; conditions: in vivo
[8] = as §3; format: ADME, organism-based; set-up: dose 1.8 mg/kg, route intravenous; conditions: in vivo, read-out: Vdss
[9] = as §2; format: ADME, organism-based; set-up: dose 1.8 mg/kg, route intravenous; conditions: plasma
[10] = (§5) AUC in rat at 2 mg/kg, iv; format: ADME, organism-based, Plasma; set-up: dose 2 mg/kg, route intravenous; conditions: plasma
[11] = Volume of distribution at steady state in rat at 2 mg/kg, iv; format: ADME, organism-based; set-up: dose 2 mg/kg, route intravenous; conditions: in vivo, read-out: Vdss
Rattus norvegicus [12] = assay: as §5; format: ADME, organism-based, Plasma; set-up: dose 2 mg/kg, route intravenous; conditions: in vivo
Rattus norvegicus [13] = assay: as §1; format: ADME, organism-based, Plasma; set-up: dose 10 mg/kg, route oral; conditions: in vivo
Rattus norvegicus [14] = assay: as §4; format: ADME, organism-based; conditions: in vivo

Row | SMILES | AUC [1] [ng·h/mL] | bioavailability [6] [%] | Cmax [7] [ng/mL] | Vd [11] [L/kg] | further results
1 | Cc1cc(C)cc([C@@H](CC(C)C)NC(=O)c2cc(COc3ccccc3C)ccc2CCC(=O)O)c1 | 1010 |  |  |  | AUC [2]: 890 ng·h/mL; Vd [3]: 1.24 L/kg
2 | Cc1cc(C)cc([C@@H](CC(C)C)NC(=O)c2cc(COc3cc(F)ccc3F)ccc2CCC(=O)O)c1 |  | 18 | 190 |  | Vd [4]: 0.39 L/kg; AUC [5]: 681 ng·h/mL
3 | Cc1cc(C)cc([C@@H](CC(C)C)NC(=O)c2cc(COc3cc(C)ccc3C)ccc2CCC(=O)O)c1 | 4100 | 54 | 1350 |  | Vd [8]: 0.67 L/kg; AUC [9]: 1370 ng·h/mL
4 | Cc1cc(C)cc(Oc2ccc(CCC(=O)O)c(C(=O)N[C@H](CC(C)C)c3cc(C)cc(C)c3)c2)c1 | 1430 | 21 | 950 | 0.56 | AUC [10]: 1370 ng·h/mL
5 | Cc1cc(C)cc(Nc2ccc(CCC(=O)O)c(C(=O)N[C@H](CC(C)C)c3cc(C)cc(C)c3)c2)c1 |  |  | 1370 | 1.03 | AUC (Rattus norvegicus [12]): 2670 ng·h/mL; AUC (Rattus norvegicus [13]): 3270 ng·h/mL; bioavailability (Rattus norvegicus [14]): 25%
